Assay results from patent US5258382A, “Tetrahydropyrrolo[1,2-a]pyrazine-4-spiro-3'-pyrrolidine derivatives, processes for the preparation thereof and pharmaceutical compositions containing the same” (Dainippon Pharmaceutical Co., Ltd., priority 1991, dated 1993).
Where two headings read alike, the source gives them in different places.

Experiments:
Aldose reductase = molecular target: T1, Aldose reductase (Sus scrofa, UniProt P80276); assay: Aldose reductase inhibitory activity (in vitro); type: biochemical, porcine
T1 construct: Lenses isolated from porcine eyes (Tokyo Sibaura Zouki Co., Ltd., Japan) were homogenized; tissue Tokyo Sibaura Zouki Co., Ltd., Japan (porcine eyes); host or cells: porcine lens
Experimental: Lenses isolated from porcine eyes (Tokyo Sibaura Zouki Co., Ltd., Japan) were homogenized with 5 mM phosphate buffer (pH 7.4) containing 2 mM mercaptoethanol, and centrifuged at 10,200 g for 10 minutes. The supernatant was sequentially precipitated with ammonium sulfate at 30%, 40% and 60% saturation. The precipitate at 60% saturation was dissolved in a homogenizing buffer and used as a crude enzyme preparation. The unit of enzyme activity was defined as the amount of enzyme which oxidized 1 μmoles of NADPH/minute under the following assay condition.
The standard reaction mixture was composed of 100 mM phosphate buffer (pH 6.5), 0.2 mM NADPH, 1.5 mM D,L-glyceraldehyde, 0.4M lithium sulfate, enzyme solution (7.0 mU/ml) and test compounds at various concentrations. The reaction mixture was incubated at 37° C., and the decrease in absorbance at 340 nm was monitored by a spectrophotometer (Hitachi 150-20). The enzyme activity was calculated based upon the rate of decrease in the absorbance over a period of 1 minute from 1 minute after the onset of the enzyme reaction.

sorbitol accumulation = assay: Inhibitory activity on sorbitol accumulation (in vivo), sciatic nerve of streptozotocin-diabetic rats; parameters: species or system Male Wistar rats; conditions: for Inhibition (%) of sorbitol accumulation: oral, once a day for 5 days, sciatic nerve, 4 hours after final administration; for inhibitory activity on sorbitol accumulation relative to (±)-sorbinil: compared with (±)-sorbinil; for duration of effect: rat, in vivo
Experimental: Male Wistar rats (200-250 g) were used in groups of 4 animals each. The rats were made diabetic by single i.v. injection of streptozotocin (40 mg/kg) freshly dissolved in physiological saline.
From one week after the induction of diabetes, the rats were orally given test compounds, suspended in 0.5% tragacanth solution, once a day for 5 days. […] The activity of test compounds was expressed as the inhibition percent of sorbitol accumulation ar given doses, which was calculated according to the following equation.
Inhibition %=(S-T)/(S-N)×100
S: Sorbitol content in sciatic nerve from diabetic control
T: Sorbitol content in sciatic nerve from diabetic rats given test compounds
N: Sorbitol content in sciatic nerve from normal rats.

Acute toxicity, oral = conditions: 1 g/kg oral, suspended in 0.5% tragacanth; observed for 7 days
Description: Male ddY mice (18-25 g) were used in groups of 5 animals each. The compounds of Examples 1 (21) and 22, suspended in 0.5% tragacanth solution, were orally administered at a dose of 1 g/kg to the animals.

[1] = crude enzyme from porcine lenses, D,L-glyceraldehyde 1.5 mM, NADPH 0.2 mM, pH 6.5, 37° C., read-out: IC50 (aldose reductase inhibitory activity)

Structure (SMILES) | IC50 (Aldose reductase; [1]) [nM] | Inhibition (%) of sorbitol accumulation (sorbitol accumulation; 30 mg/kg/day) [%] | inhibitory activity on sorbitol accumulation relative to (±)-sorbinil (sorbitol accumulation) | also measured
O=C1CC2(C(=O)N1)C(=O)N(Cc1ccc(Br)cc1F)C(=O)c1cc(Cl)cn12 (centres unmarked) [Example 19, 2-(4-bromo-2-fluorobenzyl)-7-chloro-[1,2,3,4-tetrahydropyrrolo[1,2-a]pyrazine-4-spiro-3'-pyrrolidine]-1,2',3,5'-tetrone] | 50 |  |  | 
O=C1CC2(C(=O)N1)C(=O)N(Cc1ccc(Cl)c(Cl)c1)C(=O)c1cccn12 (centres unmarked) [Example 24, 2-(3,4-dichlorobenzyl)-[1,2,3,4-tetrahydropyrrolo[1,2-a]pyrazine-4-spiro-3'-pyrrolidine]-1,2',3,5'-tetrone] | 23 | 111.8 | equipotent to or more potent than (±)-sorbinil | Inhibition (%) of sorbitol accumulation (sorbitol accumulation; 1.0 mg/kg/day): 70.9%
O=C1NC(=O)C2(CCOc3ccc(F)cc32)N1 (racemic) [(±)-Sorbinil, 6-fluoro-2,3-dihydrospiro[4H-1-benzopyran-4,4'-imidazolidine]-2',5'-dione, reference compound] |  | 106.9 |  | Inhibition (%) of sorbitol accumulation (sorbitol accumulation; 3.0 mg/kg/day): 60.7%
O=C1CC2(C(=O)N1)C(=O)N(Cc1ccccc1Cl)C(=O)c1cccn12 (centres unmarked) [Example 2, 2-(2-chlorobenzyl)-[1,2,3,4-tetrahydropyrrolo[1,2-a]pyrazine-4-spiro-3'-pyrrolidine]-1,2',3,5'-tetrone] | 33 | 97.1 |  | Inhibition (%) of sorbitol accumulation (sorbitol accumulation; 3.0 mg/kg/day): 30.5%
CC(=C\c1ccccc1)/C=C1/SC(=S)N(CC(=O)O)C1=O [Epalrestat, (E,E)-5-(2-methyl-3-phenyl-2-propenylidene) 4-oxo-2-thioxo-3-thiazolidineacetic acid, reference compound] |  |  |  | Inhibition (%) of sorbitol accumulation (sorbitol accumulation; 200 mg/kg/day): 5.7%; IC50 (Aldose reductase): 73 nM
O=C1CC2(C(=O)N1)C(=O)N(Cc1ccc(Br)cc1)C(=O)c1cccn12 (centres unmarked) [Example 8, 2-(4-bromobenzyl)-[1,2,3,4-tetrahydropyrrolo[1,2-a]pyrazine-4-spiro-3'-pyrrolidine]-1,2',3,5'-tetrone] | 47 |  | equipotent to or more potent than (±)-sorbinil | Inhibition (%) of sorbitol accumulation (sorbitol accumulation; 3.0 mg/kg/day): 104.7%
O=C1CC2(C(=O)N1)C(=O)N(Cc1ccccc1Br)C(=O)c1cccn12 (centres unmarked) [Example 17] | 52 |  |  | 
O=C1CC2(C(=O)N1)C(=O)N(Cc1ccc(Cl)cc1F)C(=O)c1cccn12 (centres unmarked) [Example 16, 2-(4 chloro 2-fluorobenzyl)-[1,2,3,4-tetrahydropyrrolo[1,2-a]pyrazine-4-spiro-3'-pyrrolidine]-1,2',3,5'-tetrone] | 41 |  | equipotent to or more potent than (±)-sorbinil | Inhibition (%) of sorbitol accumulation (sorbitol accumulation; 1.0 mg/kg/day): 61.0%
Cc1ccc(CN2C(=O)c3cccn3C3(CC(=O)NC3=O)C2=O)cc1 (centres unmarked) [Example 11] | 52 | 65.8 |  | 
O=C1CC2(C(=O)N1)C(=O)N(Cc1cccc(Br)c1)C(=O)c1cccn12 (centres unmarked) [Example 18] | 37 |  |  | 
O=C1CC2(C(=O)N1)C(=O)N(Cc1ccc(C(F)(F)F)cc1)C(=O)c1cccn12 (centres unmarked) [Example 9] | 80 |  |  | 
O=C1CC2(C(=O)N1)C(=O)N(Cc1ccc(Br)cc1F)C(=O)c1ccc(Br)n12 (centres unmarked) [Example 26, 6-bromo-2-(4-bromo-2-fluorobenzyl)-[1,2,3,4-tetrahydropyrrolo[1,2-a]pyrazine-4-spiro-3'-pyrrolidine]-1,2',3,5'-tetrone] | 40 |  |  | 
O=C1CC2(C(=O)N1)C(=O)N(Cc1ccccc1F)C(=O)c1cccn12 (centres unmarked) [Example 4] | 61 |  | equipotent to or more potent than (±)-sorbinil | Inhibition (%) of sorbitol accumulation (sorbitol accumulation; 1.0 mg/kg/day): 47.2%; Inhibition (%) of sorbitol accumulation (sorbitol accumulation; 10 mg/kg/day): 73.5%
O=C1CC2(C(=O)N1)C(=O)N(Cc1ccc(Br)cc1F)C(=O)c1ccc(Cl)n12 (centres unmarked) [Example 27, 2-(4 bromo-2-fluorobenzyl)-6-chloro-[1,2,3,4-tetrahydropyrrolo[1,2-a]pyrazine-4-spiro-3'-pyrrolidine]-1,2',3,5-tetrone] | 35 |  |  | 
O=C1CC2(C(=O)N1)C(=O)N(Cc1ccc(Cl)cc1)C(=O)c1cccn12 (centres unmarked) [Example 7] | 33 | 104.6 | equipotent to or more potent than (±)-sorbinil | Inhibition (%) of sorbitol accumulation (sorbitol accumulation; 3.0 mg/kg/day): 69.7%
COc1ccc(CN2C(=O)c3cccn3C3(CC(=O)NC3=O)C2=O)cc1 (centres unmarked) [Example 12] | 46 |  |  | 
COc1ccc(CN2C(=O)c3cccn3C3(CC(=O)NC3=O)C2=O)cc1OC (centres unmarked) [Example 13] | 110 |  |  | 
O=C1CC2(C(=O)N1)C(=O)N(Cc1ccc(Br)cc1F)C(=O)c1cccn12 (single isomer, unassigned) [Example 22, an enantiomer of 2-(4-bromo-2-fluorobenzyl)-[1,2,3,4-tetrahydropyrrolo[1,2-a]pyrazine-4-spiro-3'-pyrrolidine]-1,2',3,5'-tetrone] |  |  | equipotent to or more potent than (±)-sorbinil | Inhibition (%) of sorbitol accumulation (sorbitol accumulation; 0.3 mg/kg/day): 77.6%; Inhibition (%) of sorbitol accumulation (sorbitol accumulation; 1.0 mg/kg/day): 107.3%; duration of effect (sorbitol accumulation): long-lasting; mortality (Acute toxicity, oral): None of the mice died during this period; IC50 (Aldose reductase): 39 nM
O=C1CC2(C(=O)N1)C(=O)N(Cc1ccc(Br)cc1F)C(=O)c1cc(Br)cn12 (centres unmarked) [Example 20, 7-bromo-2-(4-bromo-2-fluorobenzyl)-[1,2,3,4-tetrahydropyrrolo[1,2-a]pyrazine-4-spiro-3'-pyrrolidine]-1,2',3,5'-tetrone] | 100 |  |  | 
O=C1CC2(C(=O)N1)C(=O)N(Cc1ccc(F)cc1)C(=O)c1cccn12 (centres unmarked) [Example 6] | 120 | 55.8 |  | 
O=C1CC2(C(=O)N1)C(=O)N(Cc1ccc([N+](=O)[O-])cc1)C(=O)c1cccn12 (centres unmarked) [Example 15] | 110 | 102.2 |  | Inhibition (%) of sorbitol accumulation (sorbitol accumulation; 3.0 mg/kg/day): 7.4%
O=C1CC2(C(=O)N1)C(=O)N(Cc1ccccc1)C(=O)c1cccn12 (centres unmarked) [Example 3] | 99 | 69.1 |  | 
O=C1CC2(C(=O)N1)C(=O)N(Cc1ccc(F)cc1F)C(=O)c1cccn12 (centres unmarked) [Example 10] | 72 | 98.0 |  | Inhibition (%) of sorbitol accumulation (sorbitol accumulation; 3.0 mg/kg/day): 33.3%
O=C1CC2(C(=O)N1)C(=O)N(Cc1cccc(Cl)c1)C(=O)c1cccn12 (centres unmarked) [Example 5] | 31 | 99.4 | equipotent to or more potent than (±)-sorbinil | Inhibition (%) of sorbitol accumulation (sorbitol accumulation; 3.0 mg/kg/day): 44.2%
O=C1CC2(C(=O)N1)C(=O)N(Cc1ccc(Br)cc1F)C(=O)c1cccn12 (centres unmarked) [Example 1, 2-(4-bromo-2-fluorobenzyl)-[1,2,3,4-tetrahydropyrrolo[1,2-a]pyrazine-4-spiro-3'-pyrrolidine]-1,2',3,5'-tetrone] |  | 114.6 | equipotent to or more potent than (±)-sorbinil | Inhibition (%) of sorbitol accumulation (sorbitol accumulation; 1.0 mg/kg/day): 104.7%; duration of effect (sorbitol accumulation): long-lasting; mortality (Acute toxicity, oral): None of the mice died during this period; IC50 (Aldose reductase): 50 nM
